The values that follow come from patent US12441718B2, “Selective angiotensin II compounds” (VICORE PHARMA AB, priority 2021, dated 2025).

Each structure is given as a SMILES string. Values joined by “and” are separate entries in the source; they are usually repeats but may differ in a detail not shown here. Equal entries are not always repeated. Where two headings read alike, the source gives them in different places.

Data set [1] concerns the target T1, human recombinant AT2 receptor (Homo sapiens, UniProt P50052).
T1 construct: purchased Eurofins ITEM26 (protocol number)
T1 sequence (P50052 1-363): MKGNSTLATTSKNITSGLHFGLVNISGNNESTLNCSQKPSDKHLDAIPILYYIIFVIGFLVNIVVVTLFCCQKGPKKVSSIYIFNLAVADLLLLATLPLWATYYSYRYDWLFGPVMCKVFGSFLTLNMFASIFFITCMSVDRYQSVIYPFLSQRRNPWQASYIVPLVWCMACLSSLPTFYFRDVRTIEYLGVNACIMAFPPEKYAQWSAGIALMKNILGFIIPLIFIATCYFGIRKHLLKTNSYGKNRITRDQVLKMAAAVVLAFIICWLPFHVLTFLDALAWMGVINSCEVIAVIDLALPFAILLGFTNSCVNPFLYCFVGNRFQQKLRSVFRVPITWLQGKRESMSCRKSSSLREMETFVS
Put plainly: Binding to AT2 receptor, radiometric scintillation assay (Eurofins ITEM26). Particulars: for Ki: seven-point dose-response curve.

Data set [2] can be described thus: Metabolic stability in pooled human liver microsomes. The format is in vitro ADME. The note with it: pooled human liver microsomes 0.5 mg/mL, 1 μM test compound, 37° C., * rows = mean of two runs; for half-life at 1 μM: human, pooled human liver microsomes. In outline:
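Pooled human liver microsomes (0.5 mg/mL in PBS) preincubated ±1 mM NADPH at 37° C; test compound added at 10 min to 1 μM final. Samples at 0, 5, 15 and 60 min quenched in acetonitrile, parent quantified by LC-MS/MS against a standard curve (terfenadine internal standard). Initial metabolic rate calculated with and without NADPH.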
A general note: Liver microsomes are a subcellular fraction often used to study metabolism.

For data set [3], the target named is T2, human recombinant AT1 receptor (Homo sapiens, UniProt P30556).
T2 construct: purchased Eurofins ITEM24 (protocol number)
T2 sequence (P30556 1-359): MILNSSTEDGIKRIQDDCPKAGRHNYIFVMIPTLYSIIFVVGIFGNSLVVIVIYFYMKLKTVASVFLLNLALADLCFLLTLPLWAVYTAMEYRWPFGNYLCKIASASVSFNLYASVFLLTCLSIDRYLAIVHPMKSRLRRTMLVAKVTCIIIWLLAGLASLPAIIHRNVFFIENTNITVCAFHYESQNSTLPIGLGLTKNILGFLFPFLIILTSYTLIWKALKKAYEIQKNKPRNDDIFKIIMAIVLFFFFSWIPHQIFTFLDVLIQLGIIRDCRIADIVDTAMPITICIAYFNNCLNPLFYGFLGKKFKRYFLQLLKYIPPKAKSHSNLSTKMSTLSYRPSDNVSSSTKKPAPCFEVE
Put plainly: Binding to AT1 receptor, radiometric scintillation assay (Eurofins ITEM24). Particulars: test compounds at 1 and 10 μM, ligand 125I(sar1,Ile8)-AT-II; * rows = mean of runs.

The target in data set [4] is CYP3A4 (Homo sapiens, UniProt P08684). Put plainly: CYP inhibition in human liver microsomes (Eurofins ITEMG232), midazolam substrate. Also on record: isoform-specific substrates incubated with human liver microsomes; tissue Eurofins ITEMG232 (protocol number); host or cells: human liver microsomes. It counts as in vitro ADME. The note with it: human, probe midazolam, read-out: CYP3A4 midazolam Inh %.

For data set [5], the target named is T3, CYP2B6 (Homo sapiens, UniProt P20813).
T3 construct: isoform-specific substrates incubated with human liver microsomes; tissue Eurofins ITEMG232 (protocol number); host or cells: human liver microsomes
T3 sequence (P20813 1-491): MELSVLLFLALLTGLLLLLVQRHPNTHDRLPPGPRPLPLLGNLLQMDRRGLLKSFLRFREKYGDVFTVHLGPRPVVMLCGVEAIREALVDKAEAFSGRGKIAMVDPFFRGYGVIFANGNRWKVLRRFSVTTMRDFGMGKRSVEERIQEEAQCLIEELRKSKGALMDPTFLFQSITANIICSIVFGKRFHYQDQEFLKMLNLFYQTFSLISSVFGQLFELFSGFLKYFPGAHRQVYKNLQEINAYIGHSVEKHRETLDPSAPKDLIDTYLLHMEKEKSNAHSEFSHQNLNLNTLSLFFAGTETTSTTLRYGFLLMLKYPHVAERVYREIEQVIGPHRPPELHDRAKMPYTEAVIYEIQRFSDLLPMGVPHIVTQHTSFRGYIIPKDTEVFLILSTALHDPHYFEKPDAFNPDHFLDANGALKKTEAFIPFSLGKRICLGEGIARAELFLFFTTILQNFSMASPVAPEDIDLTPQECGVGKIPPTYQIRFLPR
Put plainly: CYP inhibition in human liver microsomes (Eurofins ITEMG232). Particulars: probe bupropion, substrate bupropion, read-out: CYP2B6 Inh %. The format is in vitro ADME.

For data set [6], the target named is T4, CYP1A2 (Homo sapiens, UniProt P05177).
T4 construct: isoform-specific substrates incubated with human liver microsomes; tissue Eurofins ITEMG232 (protocol number); host or cells: human liver microsomes
Put plainly: in vitro. The format is in vitro ADME. Particulars: human, microsomes, human liver microsomes, substrate phenacetin, read-out: CYP1A2 Inh %.
Procedure: The following substrates were used; CYP1A phenacetin, CYP2B36 bupropion, CYP2C8 paclitaxel and amodiaquine, CYP2C9 diclofenac, CYP2C19 omeprazole, CYP2D6 dextromethorphan, CYP3A midazolam and testosterone.
At the end of the incubation, the formation of metabolite was monitored by HPLC-MS/MS as the peak area response.

Data set [7] addresses T5, CYP2C8 (Homo sapiens, UniProt P10632).
T5 construct: isoform-specific substrates incubated with human liver microsomes; tissue Eurofins ITEMG232 (protocol number); host or cells: human liver microsomes
T5 sequence (P10632 1-490): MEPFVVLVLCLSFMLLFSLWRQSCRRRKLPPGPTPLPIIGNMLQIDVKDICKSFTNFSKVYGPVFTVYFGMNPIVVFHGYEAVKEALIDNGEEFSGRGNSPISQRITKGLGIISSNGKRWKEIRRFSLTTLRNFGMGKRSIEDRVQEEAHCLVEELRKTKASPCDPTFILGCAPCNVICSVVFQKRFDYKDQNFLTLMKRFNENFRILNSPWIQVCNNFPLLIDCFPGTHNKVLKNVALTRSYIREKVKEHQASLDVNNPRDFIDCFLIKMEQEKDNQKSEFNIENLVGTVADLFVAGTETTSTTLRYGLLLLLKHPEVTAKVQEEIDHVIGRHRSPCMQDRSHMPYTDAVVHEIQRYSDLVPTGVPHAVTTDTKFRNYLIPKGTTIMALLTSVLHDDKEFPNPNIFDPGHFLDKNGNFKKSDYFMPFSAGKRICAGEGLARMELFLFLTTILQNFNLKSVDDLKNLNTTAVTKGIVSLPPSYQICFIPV
In words: CYP inhibition in human liver microsomes (Eurofins ITEMG232). The format is in vitro ADME. The note with it: human, probe paclitaxel and amodiaquine, substrate paclitaxel and amodiaquine, read-out: CYP2C8 Inh %.

In data set [8] the target is CYP2C9 (Homo sapiens, UniProt P11712). The description is as above. It counts as in vitro ADME. Set-up: isoform-specific substrates incubated with human liver microsomes; tissue Eurofins ITEMG232 (protocol number); host or cells: human liver microsomes. Particulars: human, probe diclofenac, substrate diclofenac, read-out: CYP2C9 Inh %.
Data set [9] concerns CYP3A4&5. Put plainly: in vitro. Particulars: human, human liver microsomes, probe testosterone.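 Also: Read-out is the metabolite generated from the probe substrate, quantified as HPLC-MS/MS peak area once incubation ends.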
Data set [10] has as its target T6, CYP2C19 (Homo sapiens, UniProt P33261).
T6 construct: isoform-specific substrates incubated with human liver microsomes; tissue Eurofins ITEMG232 (protocol number); host or cells: human liver microsomes
Put plainly: CYP inhibition in human liver microsomes (Eurofins ITEMG232). Particulars: human, probe omeprazole, substrate omeprazole, read-out: CYP2C19 Inh %. The format is in vitro ADME.

Data set [11] addresses T7, CYP2D6 (Homo sapiens, UniProt P10635).
T7 construct: isoform-specific substrates incubated with human liver microsomes; tissue Eurofins ITEMG232 (protocol number); host or cells: human liver microsomes
The description is as above. It counts as in vitro ADME. Particulars: probe dextromethorphan, substrate dextromethorphan, read-out: CYP2D6 Inh %.

[12] abbreviates: ligand 125I CGP 42112A, * rows = mean of runs.
The mark [13] stands for this setting: test compounds at 1, 10, 100 and 1000 nM, ligand 125I CGP 42112A, * rows = mean of runs, read-out: AT2 GraFit IC50.
Where [14] appears, read: with 1 mM NADPH, read-out: T1/2, + NaDPH.
Setting [15] is: without NADPH, read-out: T1/2, no NaDPH.

T6 sequence (P33261 whole entry, canonical isoform): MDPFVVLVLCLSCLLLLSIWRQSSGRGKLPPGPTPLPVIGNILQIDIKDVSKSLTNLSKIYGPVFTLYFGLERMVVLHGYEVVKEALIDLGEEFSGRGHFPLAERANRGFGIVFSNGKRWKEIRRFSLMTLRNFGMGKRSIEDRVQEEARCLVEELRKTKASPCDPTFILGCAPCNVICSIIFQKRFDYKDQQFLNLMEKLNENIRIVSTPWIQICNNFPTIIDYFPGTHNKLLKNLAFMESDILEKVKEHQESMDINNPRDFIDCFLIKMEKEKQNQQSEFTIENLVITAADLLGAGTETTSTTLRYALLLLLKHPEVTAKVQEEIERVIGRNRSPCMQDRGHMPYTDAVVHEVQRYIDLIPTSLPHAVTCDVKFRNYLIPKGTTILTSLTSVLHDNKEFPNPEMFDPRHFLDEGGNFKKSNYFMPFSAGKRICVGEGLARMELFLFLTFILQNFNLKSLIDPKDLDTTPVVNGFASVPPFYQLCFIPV
T4 sequence (P05177 whole entry, canonical isoform): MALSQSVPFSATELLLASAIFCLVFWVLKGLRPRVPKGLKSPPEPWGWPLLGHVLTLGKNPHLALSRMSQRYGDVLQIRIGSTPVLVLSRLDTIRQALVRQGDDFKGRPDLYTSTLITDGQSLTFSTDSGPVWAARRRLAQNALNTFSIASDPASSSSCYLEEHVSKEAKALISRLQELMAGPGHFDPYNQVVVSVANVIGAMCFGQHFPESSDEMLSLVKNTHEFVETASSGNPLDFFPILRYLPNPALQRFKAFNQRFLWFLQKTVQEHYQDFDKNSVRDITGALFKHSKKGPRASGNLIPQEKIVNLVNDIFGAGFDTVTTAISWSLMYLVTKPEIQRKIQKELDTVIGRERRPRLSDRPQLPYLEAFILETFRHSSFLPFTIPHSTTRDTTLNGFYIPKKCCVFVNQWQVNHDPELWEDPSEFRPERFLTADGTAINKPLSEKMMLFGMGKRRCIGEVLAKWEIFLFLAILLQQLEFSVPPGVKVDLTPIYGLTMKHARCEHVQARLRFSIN
T7 sequence (P10635 whole entry, canonical isoform): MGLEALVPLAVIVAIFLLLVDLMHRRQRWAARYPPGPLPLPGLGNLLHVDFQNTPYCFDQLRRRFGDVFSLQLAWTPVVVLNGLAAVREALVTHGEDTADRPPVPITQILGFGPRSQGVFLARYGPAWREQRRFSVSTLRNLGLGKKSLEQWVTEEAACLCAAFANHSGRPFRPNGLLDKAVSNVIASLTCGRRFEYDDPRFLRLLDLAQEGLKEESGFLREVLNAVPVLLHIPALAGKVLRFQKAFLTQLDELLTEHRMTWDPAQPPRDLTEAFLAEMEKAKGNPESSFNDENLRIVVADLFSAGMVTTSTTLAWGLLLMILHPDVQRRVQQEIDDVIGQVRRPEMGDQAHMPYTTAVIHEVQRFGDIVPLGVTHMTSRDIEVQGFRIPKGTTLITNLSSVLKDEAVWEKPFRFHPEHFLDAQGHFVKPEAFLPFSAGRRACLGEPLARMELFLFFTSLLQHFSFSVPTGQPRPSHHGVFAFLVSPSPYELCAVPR
Chain of CYP3A4 (P08684 whole entry, canonical isoform): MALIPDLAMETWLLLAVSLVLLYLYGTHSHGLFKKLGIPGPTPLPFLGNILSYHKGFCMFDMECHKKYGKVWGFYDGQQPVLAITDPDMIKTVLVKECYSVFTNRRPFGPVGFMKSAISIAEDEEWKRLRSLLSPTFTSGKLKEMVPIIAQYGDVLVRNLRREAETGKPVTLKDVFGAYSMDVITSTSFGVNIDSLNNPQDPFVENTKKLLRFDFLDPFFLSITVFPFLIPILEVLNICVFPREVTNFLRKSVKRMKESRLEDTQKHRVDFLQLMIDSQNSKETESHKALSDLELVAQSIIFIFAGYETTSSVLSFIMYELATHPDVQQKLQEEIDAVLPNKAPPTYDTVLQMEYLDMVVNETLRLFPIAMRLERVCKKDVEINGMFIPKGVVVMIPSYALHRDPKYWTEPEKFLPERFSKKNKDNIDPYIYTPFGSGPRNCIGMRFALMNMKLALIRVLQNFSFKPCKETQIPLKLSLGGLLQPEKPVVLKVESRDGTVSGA
Chain of CYP2C9 (P11712 whole entry, canonical isoform): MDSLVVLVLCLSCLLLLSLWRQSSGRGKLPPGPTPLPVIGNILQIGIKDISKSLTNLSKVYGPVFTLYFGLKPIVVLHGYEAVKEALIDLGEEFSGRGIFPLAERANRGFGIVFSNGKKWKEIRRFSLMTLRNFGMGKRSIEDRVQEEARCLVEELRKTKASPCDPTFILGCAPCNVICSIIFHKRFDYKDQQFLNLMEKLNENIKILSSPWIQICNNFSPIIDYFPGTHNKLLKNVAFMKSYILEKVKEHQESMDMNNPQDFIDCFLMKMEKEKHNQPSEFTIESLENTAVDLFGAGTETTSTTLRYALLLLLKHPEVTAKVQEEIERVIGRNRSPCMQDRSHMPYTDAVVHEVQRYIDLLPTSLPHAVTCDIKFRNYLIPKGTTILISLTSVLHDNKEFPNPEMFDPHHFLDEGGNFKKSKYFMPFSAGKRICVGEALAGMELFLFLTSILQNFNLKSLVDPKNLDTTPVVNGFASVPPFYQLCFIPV

For `Cc1nccn1Cc1ccc(-c2cc(CC(C)C)sc2S(=O)(=O)Nc2ncccn2)cc1` [Example 50, 5-Isobutyl-3-(4-((2-methyl-1H-imidazol-1-yl)methyl)phenyl)-N-(pyrimidin-2-yl)thiophene-2-sulfonamide], the Ki (as a rule, a measure of affinity in units of concentration, obtained from inhibition or displacement) in data set [1] (setting [12]) worked out at 0.72 nM. For the same molecule, the IC50 (in general, the midpoint of a concentration-inhibition curve) in data set [1] (setting [13]) came to 1.44 nM; in data set [3], 35.1 µM. Moreover, the half-life at 1 μM in data set [2] (setting [14]) and in data set [2] (setting [15]) was > 60 min each time.
`CC(C)Cc1ccc(S(=O)(=O)Nc2ncc(F)cn2)c(-c2ccc(Cn3ccnc3C(C)(C)C)cc2)c1` [Example 3, 4′-((2-(tert-Butyl)-1H-imidazol-1-yl)methyl)-N-(5-fluoropyrimidin-2-yl)-5-isobutyl-[1,1′-biphenyl]-2-sulfonamide]: the Ki in [1] (setting [12]) stood at 2.4 nM. Further, the IC50 in data set [1] (setting [13]) came out at 4.79 nM; in [3], 14.3 µM. Further, the inhibition at 10 µM in data set [4] is 49.8%; in data set [5] it was -0.5%; in data set [6] it was -33.8%; in [7] it was 89.2%; in [8], 4%; in data set [9] it was 26.8%. For the same molecule, the figures for the inhibition at 10 µM in data set [10] and in data set [11] were 36.9% and 17.2%, respectively. The half-life at 1 μM in [2] (setting [14]) and in [2] (setting [15]) was > 60 min each time.
Turning to `CC(C)Cc1ccc(S(=O)(=O)Nc2ncc(C(F)(F)F)cn2)c(-c2ccc(Cn3ccnc3C(C)(C)C)cc2)c1` [Example 4, 4′-((2-(tert-Butyl)-1H-imidazol-1-yl)methyl)-5-isobutyl-N-(5-(trifluoromethyl)pyrimidin-2-yl)-[1,1′-biphenyl]-2-sulfonamide], the Ki in data set [1] (setting [12]) came out at 6.18 nM. The IC50 is 12.4 nM in data set [1] (setting [13]) and 6.2 µM in data set [3]. In addition, the inhibition at 10 µM was 33.8% in data set [4]; 36.2% in data set [5]; 19.5% in [6]; 94.3% in data set [7]; 68.3% in data set [8]; 1.5% in [9]. Moreover, the inhibition at 10 µM in [10] was determined as 62.3%; in data set [11], 21.5%. Also, the half-life at 1 μM in data set [2] (setting [14]) and in [2] (setting [15]) was > 60 min in each case.
Take `CC(C)Cc1cc(-c2ccc(Cn3ccnc3C(C)C)cc2)c(S(=O)(=O)Nc2ncccn2)s1` [Example 49, 5-Isobutyl-3-(4-((2-isopropyl-1H-imidazol-1-yl)methyl)phenyl)-N-(pyrimidin-2-yl)thiophene-2-sulfonamide]: the Ki in [1] (setting [12]) came out at 0.68 nM. Also, the IC50 came out at 1.36 nM in [1] (setting [13]) and 6.7 µM in data set [3]. In addition, the half-life at 1 μM in data set [2] (setting [14]) and in data set [2] (setting [15]) was > 60 min each time.
In the case of `CCc1nccn1Cc1ccc(-c2cc(CC(C)C)sc2S(=O)(=O)Nc2ncccn2)cc1` [Example 51, 3-(4-((2-Ethyl-1H-imidazol-1-yl)methyl)phenyl)-5-isobutyl-N-(pyrimidin-2-yl)thiophene-2-sulfonamide], the Ki in data set [1] (setting [12]) was 0.64 nM. Besides, the values for the IC50 in [1] (setting [13]) and in data set [3] were 1.28 nM and 13.9 µM, respectively. The half-life at 1 μM in [2] (setting [14]) and in data set [2] (setting [15]) was > 60 min in each case.
Consider `CC(C)Cc1cc(-c2ccc(Cn3ccnc3C3CC3)c(F)c2)c(S(=O)(=O)Nc2ncccn2)s1` [Example 47, 3-(4-((2-Cyclopropyl-1H-imidazol-1-yl)methyl)-3-fluorophenyl)-5-isobutyl-N-(pyrimidin-2-yl)thiophene-2-sulfonamide], for which the IC50 is 0.25 nM in data set [1] (AT2 GraFit IC50, value in parentheses after <0.3, value printed in parentheses behind the bound <0.3); < 0.3 nM in data set [1] (setting [13]); 4.9 µM in data set [3]. The half-life at 1 μM in data set [2] (setting [14]) and in [2] (setting [15]) was > 60 min throughout.
As to `CC(C)Cc1ccc(S(=O)(=O)Nc2ccsn2)c(-c2ccc(Cn3ccnc3C(C)(C)C)c(F)c2)c1` [Example 32, 4′-((2-(tert-Butyl)-1H-imidazol-1-yl)methyl)-3′-fluoro-5-isobutyl-N-(isothiazol-3-yl)-[1,1′-biphenyl]-2-sulfonamide], in [1] (setting [12]), the Ki amounted to 0.92 nM. In addition, the concentration for half-maximal inhibition (IC50) in data set [1] (setting [13]) is 1.84 nM; in data set [3], 14.1 µM and 8.5 µM and 11.3 µM. The half-life at 1 μM was 14 min in data set [2] (setting [14]) and > 60 min in data set [2] (setting [15]). Moreover, the “T1/2, + NaDPH” value in data set [2] (with 1 mM NADPH) is given as 13 min; in [2] (with 1 mM NADPH, listed as Example 32*), 13.5 min.
As to `COc1cc(NS(=O)(=O)c2ccc(CC(C)C)cc2-c2ccc(Cn3ccnc3C(C)(C)C)c(F)c2)nc(OC)n1` [Example 35, 4′-((2-(tert-Butyl)-1H-imidazol-1-yl)methyl)-N-(2,6-dimethoxypyrimidin-4-yl)-3′-fluoro-5-isobutyl-[1,1′-biphenyl]-2-sulfonamide], the Ki in [1] (setting [12]) amounted to 59.7 nM. The 50% inhibitory concentration (IC50) in data set [1] (setting [13]) was 119 nM; in data set [3], 30.8 µM. Besides, the half-life at 1 μM in [2] (setting [14]) is 8 min; in [2] (setting [15]) it was > 60 min.
